Reference: patent US20190292155A1, “THERAPEUTIC INHIBITORY COMPOUNDS” (LifeSci Pharmaceuticals, Inc., priority 2016, published 2019)

What follows are compounds tested against T1, human complement factor D (Homo sapiens, UniProt P00746) (assay: In vitro enzyme inhibition of human complement factor D (Z-Lys-SBzl/DTNB, A405)). Conditions: not given.
T1 construct: purchased R&D Systems 1824-SE
Type: biochemical
Outline: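 Buffer 50 mM Tris/HCl pH 7.5, 1 M NaCl, 0.5% final DMSO; compounds pre-incubated with enzyme 5 min at room temperature, then Z-Lys-SBzl with DTNB added (each diluted to 200 μM before addition).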

T1 sequence (P00746 26-253): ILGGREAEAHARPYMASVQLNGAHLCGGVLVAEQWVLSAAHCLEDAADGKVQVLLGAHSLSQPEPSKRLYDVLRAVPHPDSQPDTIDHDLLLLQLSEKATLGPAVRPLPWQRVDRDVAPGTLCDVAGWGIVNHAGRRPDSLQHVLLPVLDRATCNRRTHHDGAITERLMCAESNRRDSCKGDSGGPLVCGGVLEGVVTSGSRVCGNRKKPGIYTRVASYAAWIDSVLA

Row | Compound | IC50 [nM]
1 | NC(=O)c1nn(CC(=O)N(CC(=O)Nc2cccc(Cl)n2)C2CC2)c2ccccc12 [Example 16, 1-(2-((2-((6-chloropyridin-2-yl)amino)-2-oxoethyl)(cyclopropyl)amino)-2-oxoethyl)-1H-indazole-3-carboxamide] | 100 to 1000
2 | CC(C)N(CC(=O)Nc1cccc(Cl)n1)C(=O)Cn1nc(C(N)=O)c2ccccc21 [Example 12, 1-(2-((2-((6-chloropyridin-2-yl)amino)-2-oxoethyl)(isopropyl)amino)-2-oxoethyl)-1H-indazole-3-carboxamide] | 100 to 1000
3 | CC(CCO)N(CC(=O)NCc1cccc(Cl)c1F)C(=O)Cn1nc(C(N)=O)c2ccccc21 (stereo not drawn) [Example 57, 1-(2-((2-((3-chloro-2-fluorobenzyl)amino)-2-oxoethyl)(4-hydroxybutan-2-yl)amino)-2-oxoethyl)-1H-indazole-3-carboxamide] | 100 to 1000

Same assay, conditions: biochemical assay, substrate Z-Lys-SBzl; read-out: CFD IC50

Row | IC50 [nM] | Compound
4 | < 100 | NC(=O)n1nc(CC(=O)N(CC(=O)NCc2cccc(Cl)c2F)C2CC2)c2ccccc21 [Example 8, 3-(2-((2-((3-chloro-2-fluorobenzyl)amino)-2-oxoethyl)(cyclopropyl)amino)-2-oxoethyl)-1H-indazole-1-carboxamide]
5 | 100 to 1000 | NC(=O)c1nc(CC(=O)N(CC(=O)NCc2cccc(Cl)c2F)C2CC2)c2ccccn12 [Example 138, 1-(2-((2-((3-chloro-2-fluorobenzyl)amino)-2-oxoethyl)(cyclopropyl)amino)-2-oxoethyl)imidazo[1,5-a]pyridine-3-carboxamide]
6 | 1000 to 10000 | N#Cc1cc(Cl)c(F)c(CNC(=O)CN(C(=O)Cn2nc(C(N)=O)c3ccccc32)C2CC2)c1 [Example 90, 1-(2-((2-((3-chloro-5-cyano-2-fluorobenzyl)amino)-2-oxoethyl)(cyclopropyl)amino)-2-oxoethyl)-1H-indazole-3-carboxamide]
7 | > 10000 | NC(=O)c1nn(CC(=O)N(CC(=O)NCc2cccc(CO)c2F)C2CC2)c2ccccc12 [Example 126, 1-(2-(cyclopropyl(2-((2-fluoro-3-(hydroxymethyl)benzyl)amino)-2-oxoethyl)amino)-2-oxoethyl)-1H-indazole-3-carboxamide]
8 | 100 to 1000 | NC(=O)c1nn(CC(=O)N(CC(=O)NCc2cccc(Cl)c2)C2CC2)c2ccccc12 [Example 112, 1-(2-((2-((3-chlorobenzyl)amino)-2-oxoethyl)(cyclopropyl)amino)-2-oxoethyl)-1H-indazole-3-carboxamide]
9 | 100 to 1000 | CC(N(CC(=O)NCc1cccc(Cl)c1F)C(=O)Cn1nc(C(N)=O)c2ccccc21)C(F)(F)F (stereo not drawn) [Example 67, 1-(2-((2-((3-chloro-2-fluorobenzyl)amino)-2-oxoethyl)(1,1,1-trifluoropropan-2-yl)amino)-2-oxoethyl)-1H-indazole-3-carboxamide]
10 | 1000 to 10000 | NC(=O)c1nn(CC(=O)N(CC(=O)NCc2ccccc2F)C2CC2)c2ccccc12 [Example 115, 1-(2-(cyclopropyl(2-((2-fluorobenzyl)amino)-2-oxoethyl)amino)-2-oxoethyl)-1H-indazole-3-carboxamide]
11 | 1000 to 10000 | NC(=O)c1nn(CC(=O)N(CC(=O)NCc2cc(Cl)cc(C(F)(F)F)c2)C2CC2)c2ccccc12 [Example 124, 1-(2-((2-((3-chloro-5-(trifluoromethyl)benzyl)amino)-2-oxoethyl)(cyclopropyl)amino)-2-oxoethyl)-1H-indazole-3-carboxamide]
12 | 100 to 1000 | N#Cc1ccc2c(c1)c(C(N)=O)nn2CC(=O)N(CC(=O)NCc1cccc(Cl)c1F)C1CC1 [Example 92, 1-(2-((2-((3-chloro-2-fluorobenzyl)amino)-2-oxoethyl)(cyclopropyl)amino)-2-oxoethyl)-5-cyano-1H-indazole-3-carboxamide]
13 | > 10000 | NC(=O)c1cc(C(F)(F)F)n(CC(=O)N(CC(=O)NCc2cccc(Cl)c2F)C2CC2)n1 [Example 43, 1-(2-((2-((3-chloro-2-fluorobenzyl)amino)-2-oxoethyl)(cyclopropyl)amino)-2-oxoethyl)-5-(trifluoromethyl)-1H-pyrazole-3-carboxamide]

The remaining lines, values behind:

Row | Compound | IC50 [nM]
14 | NC(=O)c1nc(NC(=O)N(CC(=O)NCc2cccc(Cl)c2F)C2CC2)c2ccccn12 [Example 53, 1-(3-(2-((3-chloro-2-fluorobenzyl)amino)-2-oxoethyl)-3-cyclopropylureido)imidazo[1,5-a]pyridine-3-carboxamide] | 100 to 1000
15 | CC(=O)c1nn(CC(=O)N(CC(=O)NCc2cccc(Cl)c2F)C2CC2)c2ccccc12 [Example 47, 2-(3-acetyl-1H-indazol-1-yl)-N-(2-((3-chloro-2-fluorobenzyl)amino)-2-oxoethyl)-N-cyclopropylacetamide] | < 100
16 | NC(=O)c1nn(CC(=O)N(CC(=O)NCc2cccc(Cl)c2F)C2CC2)c2cnccc12 [Example 40, 1-(2-((2-((3-chloro-2-fluorobenzyl)amino)-2-oxoethyl)(cyclopropyl)amino)-2-oxoethyl)-1H-pyrazolo[3,4-c]pyridine-3-carboxamide] | < 100
17 | C[C@H](C(=O)NCc1cccc(Cl)c1F)N(C(=O)Cn1nc(C(N)=O)c2ccccc21)C1CC1 [Example 38, (R)-1-(2-((1-((3-chloro-2-fluorobenzyl)amino)-1-oxopropan-2-yl)(cyclopropyl)amino)-2-oxoethyl)-1H-indazole-3-carboxamide] | 1000 to 10000
18 | NC(=O)c1cc(C(=O)O)n(CC(=O)N(CC(=O)NCc2cccc(Cl)c2F)C2CC2)n1 [Example 44, 3-carbamoyl-1-(2-((2-((3-chloro-2-fluorobenzyl)amino)-2-oxoethyl)(cyclopropyl)amino)-2-oxoethyl)-1H-pyrazole-5-carboxylic acid] | 1000 to 10000
19 | CCC(COC)N(CC(=O)NCc1cccc(Cl)c1F)C(=O)Cn1nc(C(N)=O)c2ccccc21 (stereo not drawn) [Example 61, 1-(2-((2-((3-chloro-2-fluorobenzyl)amino)-2-oxoethyl)(1-methoxybutan-2-yl)amino)-2-oxoethyl)-1H-indazole-3-carboxamide] | 1000 to 10000
20 | NC(=O)c1nn(CC(=O)N(CC(=O)NCc2ccc(CO)c(Cl)c2F)C2CC2)c2ccccc12 [Example 99, 1-(2-((2-((3-chloro-2-fluoro-4-(hydroxymethyl)benzyl)amino)-2-oxoethyl)(cyclopropyl)amino)-2-oxoethyl)-1H-indazole-3-carboxamide] | > 10000
21 | NC(=O)c1nn(CC(=O)N(CC(=O)NCc2cccc(Cl)c2F)C2CC2)c2c(C(F)(F)F)cccc12 [Example 111, 1-(2-((2-((3-chloro-2-fluorobenzyl)amino)-2-oxoethyl)(cyclopropyl)amino)-2-oxoethyl)-7-(trifluoromethyl)-1H-indazole-3-carboxamide] | < 100
22 | NC(=O)c1nn(CC(=O)N(CC(=O)NCc2cccc(Cl)c2F)C(CCO)C2CC2)c2ccccc12 (stereo not drawn) [Example 73, 1-(2-((2-((3-chloro-2-fluorobenzyl)amino)-2-oxoethyl)(1-cyclopropyl-3-hydroxypropyl)amino)-2-oxoethyl)-1H-indazole-3-carboxamide] | 1000 to 10000
23 | N#Cc1cccc2c(C(N)=O)nn(CC(=O)N(CC(=O)NCc3cccc(Cl)c3F)C3CC3)c12 [Example 105, 1-(2-((2-((3-chloro-2-fluorobenzyl)amino)-2-oxoethyl)(cyclopropyl)amino)-2-oxoethyl)-7-cyano-1H-indazole-3-carboxamide] | 1000 to 10000
24 | N#Cc1ccc(CNC(=O)CN(C(=O)Cn2nc(C(N)=O)c3ccccc32)C2CC2)c(F)c1Cl [Example 96, 1-(2-((2-((3-chloro-4-cyano-2-fluorobenzyl)amino)-2-oxoethyl)(cyclopropyl)amino)-2-oxoethyl)-1H-indazole-3-carboxamide] | 1000 to 10000
25 | NC(=O)CC(C1CC1)N(CC(=O)NCc1cccc(Cl)c1F)C(=O)Cn1nc(C(N)=O)c2ccccc21 (stereo not drawn) [Example 75, 1-(2-((3-amino-1-cyclopropyl-3-oxopropyl)(2-((3-chloro-2-fluorobenzyl)amino)-2-oxoethyl)amino)-2-oxoethyl)-1H-indazole-3-carboxamide] | 1000 to 10000
26 | CC(N(CC(=O)NCc1cccc(Cl)c1F)C(=O)Cn1nc(C(N)=O)c2ccccc21)C(C)(C)C (stereo not drawn) [Example 64, 1-(2-((2-((3-chloro-2-fluorobenzyl)amino)-2-oxoethyl)(3,3-dimethylbutan-2-yl)amino)-2-oxoethyl)-1H-indazole-3-carboxamide] | 100 to 1000
27 | CC(CCF)N(CC(=O)NCc1cccc(Cl)c1F)C(=O)Cn1nc(C(N)=O)c2ccccc21 (stereo not drawn) [Example 60, 1-(2-((2-((3-chloro-2-fluorobenzyl)amino)-2-oxoethyl)(4-fluorobutan-2-yl)amino)-2-oxoethyl)-1H-indazole-3-carboxamide] | 100 to 1000
28 | CC1CC1N(CC(=O)NCc1cccc(Cl)c1F)C(=O)Cn1nc(C(N)=O)c2ccccc21 (stereo not drawn) [Example 63, 1-(2-((2-((3-chloro-2-fluorobenzyl)amino)-2-oxoethyl)(2-methylcyclopropyl)amino)-2-oxoethyl)-1H-indazole-3-carboxamide] | 100 to 1000
29 | NC(=O)c1nn(CC(=O)N(CC(=O)NCc2cc(Cl)cc(Cl)c2)C2CC2)c2ccccc12 [Example 119, 1-(2-(cyclopropyl(2-((3,5-dichlorobenzyl)amino)-2-oxoethyl)amino)-2-oxoethyl)-1H-indazole-3-carboxamide] | 100 to 1000
30 | C[C@@H](C(=O)NCc1cccc(Cl)c1F)N(C)C(=O)Cn1nc(C(N)=O)c2ccccc21 [Example 3, (S)-1-(2-((1-((3-chloro-2-fluorobenzyl)amino)-1-oxopropan-2-yl)(methyl)amino)-2-oxoethyl)-1H-indazole-3-carboxamide] | 1000 to 10000

These compounds were tested on alternative pathway (AP) hemolytic activity (assay: AP hemolysis inhibition assay). Conditions: Normal Human Serum, chicken or rabbit erythrocytes.
Type: cell-based
Experimental: The ability of the compounds disclosed herein to inhibit alternative pathway (AP) hemolytic activity was determined. […] In 100 μL reaction system, 1300 to […] final concentration of Normal Human Serum (CompTech) was incubated with compound for 15 min at 37° C. Then 2×10^6 cells/well of chicken or rabbit erythrocytes in assay buffer were added and incubated for an additional 60 min at 37° C. Positive control (100% lysis) consists of serum and RBC, and negative control (0% lysis) consists of assay buffer and RBC only. Samples were centrifuged at 2000 g for 5 min, and supernatants collected. […] Percentage lysis in each sample is calculated relative to positive control (100% lysis).

Row | Compound | EC50 [nM]
31 | NC(=O)c1nc(NC(=O)N(CC(=O)NCc2cccc(Cl)c2F)C2CC2)c2ccccn12 [Example 53, 1-(3-(2-((3-chloro-2-fluorobenzyl)amino)-2-oxoethyl)-3-cyclopropylureido)imidazo[1,5-a]pyridine-3-carboxamide] | 100 to 1000
32 | NC(=O)n1nc(CC(=O)N(CC(=O)NCc2cccc(Cl)c2F)C2CC2)c2ccccc21 [Example 8, 3-(2-((2-((3-chloro-2-fluorobenzyl)amino)-2-oxoethyl)(cyclopropyl)amino)-2-oxoethyl)-1H-indazole-1-carboxamide] | 100 to 1000
33 | NC(=O)c1nn(CC(=O)N(CC(=O)Nc2cccc(Cl)n2)C2CC2)c2ccccc12 [Example 16, 1-(2-((2-((6-chloropyridin-2-yl)amino)-2-oxoethyl)(cyclopropyl)amino)-2-oxoethyl)-1H-indazole-3-carboxamide] | 100 to 1000
34 | CC(C)N(CC(=O)Nc1cccc(Cl)n1)C(=O)Cn1nc(C(N)=O)c2ccccc21 [Example 12, 1-(2-((2-((6-chloropyridin-2-yl)amino)-2-oxoethyl)(isopropyl)amino)-2-oxoethyl)-1H-indazole-3-carboxamide] | 100 to 1000
35 | CC(=O)c1nn(CC(=O)N(CC(=O)NCc2cccc(Cl)c2F)C2CC2)c2ccccc12 [Example 47, 2-(3-acetyl-1H-indazol-1-yl)-N-(2-((3-chloro-2-fluorobenzyl)amino)-2-oxoethyl)-N-cyclopropylacetamide] | 100 to 1000
36 | NC(=O)c1nn(CC(=O)N(CC(=O)NCc2cccc(Cl)c2F)C2CC2)c2cnccc12 [Example 40, 1-(2-((2-((3-chloro-2-fluorobenzyl)amino)-2-oxoethyl)(cyclopropyl)amino)-2-oxoethyl)-1H-pyrazolo[3,4-c]pyridine-3-carboxamide] | 100 to 1000
